Source: US8008488B2 (Abbott GmbH & Co. KG, priority 2003, dated 2011)
Structures can show the parent of a compound that is named as a salt.

What was measured:
[1] = molecular target: T1, human dopamine D2L receptors (long isoform) (Homo sapiens, UniProt P14416); test: Dopamine D2L receptor binding, displacement of [125I]-iodospiperone; conditions: *Ki(D2L)/Ki(D3), HEK-293 membranes, 0.01 nM [125I]-iodospiperone
T1 construct: expressed in transfected cells
Experimental: (§1) The substance to be tested was dissolved either in methanol/Chremophor® (BASF-AG) or in dimethyl sulfoxide and then diluted with water to the desired concentration.
(§2) Triplicate mixtures were carried out.
The incubation buffer contained 50 mM Tris, 120 mM NaCl, 5 mM KCl, 2 mM CaCl2, 2 mM MgCl2 and 0.1% bovine serum albumin. The buffer was adjusted to pH 7.4 with HCl.
(§3) Measurement and Evaluation:
(§4) After incubation at 25° C. for 60 minutes, the mixtures were filtered under vacuum through Whatman GF/B glass fiber filters using a cell harvester. The filters were transferred by a filter transfer system into scintillation vials. After addition of 4 ml of Ultima Gold® (Packard), the samples were shaken for one hour and then the radioactivity was calculated in a beta counter (Packard, Tricarb 2000 or 2200CA). The cp values were converted into dpm by means of a standard quench series with the aid of the instrument's own program.
(§5) Evaluation of the inhibition plots took place by iterative nonlinear regression analysis using the Statistical Analysis System (SAS) similar to the “LIGAND” program described by Munson and Rodbard.

[2] = molecular target: T2, human dopamine D3 receptors (Homo sapiens, UniProt P35462); test: Dopamine D3 receptor binding, displacement of [125I]-iodosulpride; conditions: membranes from HEK-293 cells with stably expressed human D3 receptors, 0.1 nM [125I]-iodosulpride
T2 construct: expressed in transfected cells
Experimental: as §1, §2
The incubation buffer contained 50 mM Tris, 120 mM NaCl, 5 mM KCl, 2 mM CaCl2, 2 mM MgCl2 and 0.1% bovine serum albumin, 10 μM quinolone, 0.1% ascorbic acid (prepared fresh each day). The buffer was adjusted to pH 7.4 with HCl.
as §3, §4, §5

T2 sequence (P35462 whole entry): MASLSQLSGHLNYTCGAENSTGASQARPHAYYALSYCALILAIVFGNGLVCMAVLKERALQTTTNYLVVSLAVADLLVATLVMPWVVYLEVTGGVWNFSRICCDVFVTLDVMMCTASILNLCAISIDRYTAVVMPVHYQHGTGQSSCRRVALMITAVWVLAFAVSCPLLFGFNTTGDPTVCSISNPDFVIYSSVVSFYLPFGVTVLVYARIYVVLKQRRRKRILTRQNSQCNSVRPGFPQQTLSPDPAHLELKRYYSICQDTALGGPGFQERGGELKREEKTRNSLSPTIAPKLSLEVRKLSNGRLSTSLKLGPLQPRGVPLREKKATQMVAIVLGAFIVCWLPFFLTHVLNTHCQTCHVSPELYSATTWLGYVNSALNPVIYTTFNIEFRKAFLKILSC
T1 sequence (P14416 whole entry, canonical isoform): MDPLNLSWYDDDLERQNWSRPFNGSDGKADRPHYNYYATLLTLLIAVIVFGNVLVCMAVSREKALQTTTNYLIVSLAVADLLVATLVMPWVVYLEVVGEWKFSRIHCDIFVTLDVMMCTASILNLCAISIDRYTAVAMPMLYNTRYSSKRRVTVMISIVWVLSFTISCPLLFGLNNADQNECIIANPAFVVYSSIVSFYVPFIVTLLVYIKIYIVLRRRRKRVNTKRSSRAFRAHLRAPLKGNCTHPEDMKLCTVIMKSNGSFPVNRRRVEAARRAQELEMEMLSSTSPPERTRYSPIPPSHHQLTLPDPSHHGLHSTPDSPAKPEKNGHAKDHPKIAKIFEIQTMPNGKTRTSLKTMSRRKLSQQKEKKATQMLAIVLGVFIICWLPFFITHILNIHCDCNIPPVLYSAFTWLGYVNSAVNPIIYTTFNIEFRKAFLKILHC

Compound | Selectivity D3 vs. D2L* [1] | Ki [2]
CC(C)(C)c1nc(N2CCN(CCCCn3ccc(C(F)(F)F)nc3=O)CC2)cc(C(F)(F)F)n1.Cl [Example 15, 1-[2-tert-Butyl-6-(trifluoromethyl)pyrimidin-4-yl]-4-{4-[2-oxo-4-(trifluoromethyl)pyrimidin-1 (2H)-yl]butyl}piperazin-4-ium chloride] | 64 | 14.5 nM
CCCc1cc(N2CCN(C(C)CCCn3ccc(=O)[nH]c3=O)CC2)nc(C(C)(C)C)n1 (centres unmarked) [Example 61, 4-(2-tert-Butyl-6-propylpyrimidin-4-yl)-1-[4-(2,4-dioxo-3,4-dihydro-2H-pyrimidin-1-yl)-1-methylbutyl]piperazin-1-ium fumarate] | 28 | 5.84 nM
CC(C)(C)c1nc(N2CCN(CCCCn3ccc(-c4ccsc4)nc3=O)CC2)cc(C(F)(F)F)n1 [Example 92, 4-(2-tert-Butyl-6-trifluoromethylpyrimidin-4-yl)-1-[4-(2-oxo-4-thiophen-3-yl-2H-pyrimidin-1-yl)butyl]piperazin-1-ium fumarate] | 31 | 4.56 nM
1-{4-[4-(2-tert-Butyl-6-propylpyrimidin-4-yl)piperazin-1-yl]butyl}-4-methyl-1H-pyrimidin-2-one [Example 69] | 54 | 1.8 nM
CCCc1cc(N2CCN(CCCCn3ccc(C(F)(F)F)nc3=O)CC2)nc(C(C)(C)C)n1 [Example 41, 1-{4-[4-(2-tert-Butyl-6-propylpyrimidin-4-yl)piperazin-1-yl]butyl}-4-trifluoromethyl-1H-pyrimidin-2-one] | 62 | 5.78 nM
Cc1cn(CCCCN2CCN(c3cccc(C(F)(F)F)c3)CC2)c(=O)[nH]c1=O [Example 129, 5-Methyl-1-{4-[4-(3-trifluoromethylphenyl)piperazin-1-yl]butyl}-1H-pyrimidine-2,4-dione] | 48 | 1.3 nM
Cc1cn(CCCCN2CCN(c3cc(C(F)(F)F)nc(C(C)(C)C)n3)CC2)c(=O)nc1N(C)C.Cl [Example 12, 1-[2-tert-Butyl-6-(trifluoromethyl)pyrimidin-4-yl]-4-{4-[4-(dimethylamino)-5-methyl-2-oxopyrimidin-1 (2H)-yl]butyl}piperazin-4-ium chloride] | 63 | 3.44 nM
CCCc1cc(N2CCN(CCCCn3ccc(-c4cccc(F)c4)nc3=O)CC2)nc(C(C)(C)C)n1 [Example 72, 4-(2-tert-Butyl-6-propylpyrimidin-4-yl)-1-{4-[4-(3-fluorophenyl)-2-oxo-2H-pyrimidin-1-yl]butyl}piperazin-1-ium fumarate] | 54 | 1.49 nM
Cc1cn(CCCCN2CCN(c3cc(C(F)(F)F)nc(C(C)(C)C)n3)CC2)c(=O)nc1-c1ccccc1 [Example 26, 1-(4-{4-[2-tert-Butyl-6-(trifluoromethyl)pyrimidin-4-yl]piperazin-1-yl}butyl)-5-methyl-4-phenylpyrimidin-2(1H)-one] | 55 | 8.1 nM
CC(CCCn1ccc(=O)[nH]c1=O)N1CCN(c2cc(C(F)(F)F)nc(C(C)(C)C)n2)CC1 (centres unmarked) [Example 62, 1-{4-[4-(2-tert-Butyl-6-trifluoromethylpyrimidin-4-yl)piperazin-1-yl]pentyl}-1H-pyrimidine-2,4-dione] | 49 | 11 nM
CCCc1cc(N2CCN(CCCCn3ccc(-c4cccc(C)c4)nc3=O)CC2)nc(C(C)(C)C)n1 [Example 59, 1-{4-[4-(2-tert-Butyl-6-propylpyrimidin-4-yl)piperazin-1-yl]butyl}-4-(m-tolyl)-1H-pyrimidin-2-one] | 44 | 1.8 nM
CC(C)(C)c1cc(N2CCN(CCCCn3ccc(=O)[nH]c3=O)CC2)nc(C(C)(C)C)n1 [Example 33, 1-{4-[4-(2,6-di-tert-Butylpyrimidin-4-yl)piperazin-1-yl]butyl}pyrimidine-2,4(1H,3H)-dione] | 42 | 0.7 nM

Second part, the compound after the results:

Selectivity D3 vs. D2L* [1] | Ki [2] | Compound
43 | 5.41 nM | C/C(=C\CN1CCN(c2cc(C(F)(F)F)nc(C(C)(C)C)n2)CC1)Cn1ccc(=O)[nH]c1=O [Example 46, 1-(2E)-{4-[4-(2-tert-Butyl-6-trifluoromethylpyrimidin-4-yl)piperazin-1-yl]-2-methylbut-2-enyl}-1H-pyrimidine-2,4-dione]
99 | 4.78 nM | CC(C)(C)c1nc(N2CCN(CCCCn3cc(C#N)c(=O)[nH]c3=O)CC2)cc(C(F)(F)F)n1 [Example 18, 1-(4-{4-[2-tert-Butyl-6-(trifluoromethyl)pyrimidin-4-yl]piperazin-1-yl}butyl)-2,4-dioxo-1,2,3,4-tetrahydropyrimidine-5-carbonitrile]
87 | 0.27 nM | Cc1cn(CCCCN2CCN(c3cccc(Cl)c3Cl)CC2)c(=O)[nH]c1=O [Example 135, 1-{4-[4-(2,3-Dichlorophenyl)piperazin-1-yl]butyl}-5-methyl-1H-pyrimidine-2,4-dione]
36 | 4.28 nM | CC(=O)O.CC(C)(C)c1nc(N2CCN(CCCCn3ccc(C4CC4)nc3=O)CC2)cc(C(F)(F)F)n1 [Example 94, 4-(2-tert-Butyl-6-trifluoromethylpyrimidin-4-yl)-1-[4-(4-cyclopropyl-2-oxo-2H-pyrimidin-1-yl)butyl]piperazin-1-ium acetate]
54 | 0.31 nM | 1-{4-[4-(2,3-Dichlorophenyl)piperazin-1-yl]butyl}-5-methyl-1H-pyrimidine-2,4-dione [Example 82]
53 | 0.74 nM | Cc1cn(CCCCN2CCN(c3cc(C(C)(C)C)nc(C(C)(C)C)n3)CC2)c(=O)nc1O [Example 9, 1-{4-[4-(2,6-ditert-Butylpyrimidin-4-yl)piperazin-1-yl]butyl}-4-hydroxy-5-methylpyrimidin-2(1H)-one]
104 | 1.88 nM | CC(C)(C)c1nc(N2CCN(CCCCn3ccc(O)nc3=O)CC2)cc(C(F)(F)F)n1 [Example 13]
30 | 0.86 nM | O=c1[nH]c(=O)n(CCCCN2CCN(c3cccc(Cl)c3Cl)CC2)cc1F [Example 79, 1-{4-[4-(2,3-Dichlorophenyl)piperazin-1-yl]butyl}-5-fluoro-1H-pyrimidine-2,4-dione]
63 | 6.8 nM | Cc1cn(CCCCN2CCN(c3cc(C(F)(F)F)cc(C(F)(F)F)c3)CC2)c(=O)[nH]c1=O [Example 125, 1-{4-[4-(3,5-Bis-trifluoromethylphenyl)piperazin-1-yl]butyl}-5-methyl-1H-pyrimidine-2,4-dione]
30 | 10 nM | CCCc1cc(N2CCN(CCC(C)Cn3cc(C)c(=O)[nH]c3=O)CC2)nc(C(C)(C)C)n1 (centres unmarked) [Example 70, 1-{4-[4-(2-tert-Butyl-6-propylpyrimidin-4-yl)piperazin-1-yl]-2-methylbutyl}-5-methyl-1H-pyrimidine-2,4-dione]
45 | 1.5 nM | Cc1cn(CCCCN2CCN(c3ccccc3Cl)CC2)c(=O)[nH]c1=O [Example 127, 1-{4-[4-(2-Chlorophenyl)piperazin-1-yl]butyl}-5-methyl-1H-pyrimidine-2,4-dione]
134 | 0.71 nM | Cc1cn(CCCCN2CCN(c3cc(C4CC4)nc(C(C)(C)C)n3)CC2)c(=O)nc1O [Example 17, 1-{4-[4-(2-tert-Butyl-6-cyclopropylpyrimidin-4-yl)piperazin-1-yl]butyl}-4-hydroxy-5-methylpyrimidin-2(1H)-one]
116 | 4.96 nM | CCCc1cc(N2CCN(CCCCn3ccc(C)nc3=O)CC2)nc(C(C)(C)C)n1.Cl [Example 35, 4-(2-tert-Butyl-6-propylpyrimidin-4-yl)-1-[4-(4-methyl-2-oxopyrimidin-1 (2H)-yl)butyl]piperazin-1-ium chloride]
246 | 1.3 nM | Cc1cn(CCCCN2CCN(c3cc(C(F)(F)F)nc(C(C)(C)C)n3)CC2)c(=O)nc1O.Cl [Example 5, 1-[2-tert-Butyl-6-(trifluoromethyl)pyrimidin-4-yl]-4-[4-(4-hydroxy-5-methyl-2-oxopyrimidin-1 (2H)-yl)butyl]piperazin-4-ium chloride]
37 | 4.99 nM | CC(C)(C)c1nc(N2CCN(CCCCn3ccc(-c4ccc(F)cc4)nc3=O)CC2)cc(C(F)(F)F)n1.Cl [Example 45, 4-(2-tert-Butyl-6-trifluoromethylpyrimidin-4-yl)-1-{4-[4-(4-fluorophenyl)-2-oxo-2H-pyrimidin-1-yl]butyl}piperazin-1-ium chloride]
30 | 6.8 nM | Cc1ccccc1N1CCN(CCCCn2cc(C)c(=O)[nH]c2=O)CC1 [Example 111, 5-Methyl-1-[4-(4-(o-tolyl)piperazin-1-yl)butyl]-1H-pyrimidine-2,4-dione]
